Data as given in patent publication US12503448B2, “Antibacterial and antiparasitic quinoxaline-2,3-diamine derivatives” (University College Cardiff Consultants Limited, priority 2019, dated 2025).
≈ marks a conversion by molar mass, not a printed value. Like-named read-outs stand apart in the source and are kept apart here.

How the values were obtained:
[1] = tested on: M. smegmatis mc^2 15 ATCC 700084; assay: In vitro antibacterial activity; format: cell-based, Mycobacterium smegmatis; settings: Mycolicibacterium smegmatis, ATCC700084
S. mansoni adult worms = assay: Adult worm drug screen (WHO scoring, WormassayGP2); format: cell-based, Schistosoma mansoni; settings: for Selectivity Index Adult: HepG2 CC50 over adult worm EC50; for EC50: Schistosoma mansoni, adult worms
Outline: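 Adult worms perfused from MF-1 mice 7 weeks after infection with 180 cercariae. Motility after drug exposure scored on the WHO-TDR 0–4 microscopic scale (0 = no movement, 4 = normal), checked by image-based motion analysis. Deposited eggs counted.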

S. aureus ATCC 29213 = assay: In vitro antibacterial activity; format: cell-based; settings: Staphylococcus aureus, ATCC29213
[2] = tested on: Haemophilus influenzae 18391; assay: Antibacterial MIC (ISO 20776-1); format: cell-based; settings: Haemophilus influenzae 18391, AMP/COA resistance, PBP/β-lactamase
Description: (§1) In vitro Determination of Antibacterial Activity
(§2) Scientific Reports 8 (1), 2018. Bacterial strains of Enterococcus faecalis—ATCC 29212, NCTC 12201, ATCC 51299; Streptococcus pneumoniae—ATCC 49619, 18778, 21394, 21395; Haemophilus influenza—ATCC 49766, 18391, 17428; Staphylococcus aureus—NCTC 12493, ATCC BAA-077, ATCC 700698, 11051; used for testing the compounds, as previously described in “Clinical laboratory testing and in vitro diagnostics test systems—Susceptibility testing of infectious agents and evaluation of performance of antimicrobial susceptibility devices—Part 1: Reference methods for testing the in vitro activity of antimicrobial agentes against bacteria involved in infectious diseases, ISO/FDIS 20776-1:2006(E). All the procedures were carried out in a biosafety containment level 2.

[3] = tested on: Haemophilus influenzae ATCC 49766; assay: Antibacterial MIC (ISO 20776-1); format: cell-based; settings: ATCC49766
Description: as §1, §2

MRSA USA 300 = assay: In vitro antibacterial activity; format: cell-based; settings: Staphylococcus aureus
MRSA ATCC 33591 = assay: In vitro antibacterial activity; format: cell-based; settings: Staphylococcus aureus
S. epidermidis NTCT11077 = assay: In vitro antibacterial activity; format: cell-based; settings: Staphylococcus epidermidis
[4] = tested on: F. hepatica newly excysted juveniles (NEJs); assay: Newly excysted juveniles (NEJs) drug screen; format: cell-based, Fasciola hepatica; parameters: scale not given here; settings: 10 μM, 72 h; higher score indicates lower worm activity
Outline: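 Italian-strain F. hepatica NEJs, 25 per well, exposed to compound at 10 μM (0.1% DMSO) for 72 h at 37 °C, 5% CO2. Each parasite scored for phenotype and motility; averaged over two replicates, higher score meaning lower worm activity.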

[5] = Mouse pharmacokinetics, oral cassette dosing
Experimental: Non-compartmental mouse pharmacokinetics (Male C57/BL6 Mouse, Fasted; 3 mice per group) were determined after oral administration of a nominal dose of 2.5 mg/kg of these formulations in cassettes (5 compounds/group) according to the protocols employed by WuXi (https://www.wuxiapptec.com; the CRO that conducted these studies).

[6] = S. aureus ATCC 29213, read-out: MIC90
[7] = M. smegmatis mc^2 15 ATCC 700084, read-out: MIC90
[8] = male, C57/BL6, mouse, plasma, po, 2.5 mg/kg
[9] = oral, nominal dose 2.5 mg/kg, cassette
[10] = S. epidermidis NTCT11077, read-out: MIC90

O=[N+]([O-])c1ccc2nc(Nc3cccc(Cl)c3)c(Nc3cccc(Cl)c3)nc2c1 [Compound 5, N^2, N^3-bis(3-chlorophenyl)-6-nitroquinoxaline-2,3-diamine]
MIC90 [1]: > 125 µg/mL
Selectivity Index Adult (S. mansoni adult worms): 568
EC50 (S. mansoni adult worms): 12 nM
MIC90 (S. aureus ATCC 29213; [6]): < 3.91 µg/mL
MIC [2]: 8 µg/mL (≈ 18.8 µM)
MIC [3]: 4 µg/mL (≈ 9.38 µM)
MIC90 (MRSA USA 300): 3.91 µg/mL (≈ 9.17 µM)
MIC90 (MRSA ATCC 33591): 3.91 µg/mL (≈ 9.17 µM)
MIC90 (S. epidermidis NTCT11077; NTCT11077): < 62.5 µg/mL
Motility (M) Mean score [4]: 4.20
Phenotype (P) Mean score [4]: 4.70

O=[N+]([O-])c1ccc2nc(Nc3ccc(C(F)(F)F)cc3)c(Nc3ccc(C(F)(F)F)cc3)nc2c1 [Compound 11, 6-nitro-N^2, N^3-bis(4-(trifluoromethyl)phenyl)quinoxaline-2,3-diamine]
MIC90 [1, 7]: 31.2 µg/mL (≈ 63.3 µM)
Selectivity Index Adult (S. mansoni adult worms): 2320
EC50 (S. mansoni adult worms): 6.7 nM
MIC90 (S. aureus ATCC 29213; [6]): 0.98 µg/mL (≈ 1.99 µM)
MIC [2]: 16 µg/mL (≈ 32.4 µM)
MIC [3]: 16 µg/mL (≈ 32.4 µM)
MIC90 (MRSA USA 300): < 3.91 µg/mL
MIC90 (MRSA ATCC 33591): < 3.91 µg/mL
half-life ([5]; male, C57/BL6, mouse, in vivo, po, 2.5 mg/kg): 3.74 h
AUC(0-inf) [5, 8]: 444 ng·h/mL
AUC(0-t) [5, 8]: 419 ng·h/mL
Cmax [5, 8]: 68.8 ng/mL
MRT inf [5, 8]: 7.84 h
MRT last [5, 8]: 6.5 h
Tmax [5, 8]: 4 h
AUCExtra [5, 9]: 1.82%
AUMCExtra [5, 9]: 6.77%
MIC90 (S. epidermidis NTCT11077; [10]): < 62.5 µg/mL
Motility (M) Mean score [4]: 4.17
Phenotype (P) Mean score [4]: 4.28

COc1ccc(Nc2nc3ccc([N+](=O)[O-])cc3nc2Nc2ccc(OC)c(C(F)(F)F)c2)cc1C(F)(F)F [Compound 12, N^2, N^3-bis(4-methoxy-3-(tritluoromethyl)phenyl)-6-nitroquinoxaline-2,3-diamine]
MIC90 [1, 7]: > 125 µg/mL
Selectivity Index Adult (S. mansoni adult worms): 664
EC50 (S. mansoni adult worms): 8.5 nM
MIC90 (S. aureus ATCC 29213; [6]): 62.5 µg/mL (≈ 113 µM)
MIC [2]: 64 µg/mL (≈ 116 µM)
MIC [3]: 64 µg/mL (≈ 116 µM)
MIC90 (MRSA USA 300): 15.6 µg/mL (≈ 28.2 µM)
MIC90 (MRSA ATCC 33591): 31.2 µg/mL (≈ 56.5 µM)
AUC(0-t) [5, 8]: 77.8 ng·h/mL
Cmax [5, 8]: 20.1 ng/mL
MRT last [5, 8]: 4.76 h
Tmax [5, 8]: 4 h
MIC90 (S. epidermidis NTCT11077; [10]): < 62.5 µg/mL
Motility (M) Mean score [4]: 4.45
Phenotype (P) Mean score [4]: 4.70

O=[N+]([O-])c1ccc2nc(Nc3ccc(F)c(C(F)(F)F)c3)c(Nc3ccc(F)c(C(F)(F)F)c3)nc2c1 [Compound 7, N^2, N^3-bis(4-fluoro-3-(trifluoromethyl)phenyl)-6-nitroquinoxaline-2,3-diamine]
MIC90 [1]: 62.5 µg/mL (≈ 118 µM)
Selectivity Index Adult (S. mansoni adult worms): 705
EC50 (S. mansoni adult worms): 11 nM
MIC90 (S. aureus ATCC 29213): 1.95 µg/mL (≈ 3.68 µM)
MIC [2]: > 64 µg/mL
MIC [3]: > 64 µg/mL
MIC90 (MRSA USA 300): < 3.91 µg/mL
MIC90 (MRSA ATCC 33591): < 3.91 µg/mL
AUC(0-t) [5, 8]: 89.6 ng·h/mL
Cmax [5, 8]: 21.2 ng/mL
MRT last [5, 8]: 4.75 h
Tmax [5, 8]: 4 h
MIC90 (S. epidermidis NTCT11077; NTCT11077): < 62.5 µg/mL
Motility (M) Mean score [4]: 4.56
Phenotype (P) Mean score [4]: 5.00
